{"source": "patent US20040062780A1", "about": "“Compositions and methods useful for the reduction of fine lines and wrinkles” (priority 2002, published 2004)", "key": {"[1]": {"assay": "Spontaneous liposome formation of single lipids mixed with aqueous solution", "type": "physicochemical", "method": "Lipids were tested at 2 weight percent in aqueous solution. Note that GDL means glycerol dilaurate, GDO means glycerol dioleate, GDM means glycerol dimyristate, GDP means glycerol dipalmitate, and GDS means glycerol distearate. For each lipid, the number after “PEG” indicates the numbers of C2H4O subunits in the PEG chain. The unsaturated dioleate lipids have similar packing parameters to the saturated dimyristate lipids.\nSingle lipids were tested for their ability to spontaneously form liposomes when mixed with an aqueous solution. PEG-12 GDO was obtained from Global 7 (New Jersey). All other lipids were synthesized for the experiment (see Table 1). For each experiment, water and lipid were separately equilibrated at the appropriate temperature. Two weight percent lipid was added to the aqueous solution, and the solution was analyzed for the presence of liposomes by optical light microscopy, cryo TEM, freeze fracture TEM, or hot stage microscopy."}, "[2]": {"assay": "Dissolution of compounds in PEG-12 GDO lipid", "type": "physicochemical", "method": "It will be appreciated that, while liposomes form spontaneously at the temperature of formation, cooling of liposomes after formation results in liposomes in trapped kinetic states. To minimize distortions in liposome structure upon such cooling, sterols such as cholesterol may be mixed with the lipid before liposome formation. It has been observed that cholesterol may be dissolved in PEG-12 GDO at up to about 10 percent by weight.\nTretinoin (all-trans retinoic acid), 6 mg, was dissolved in 500 μl of PEG-12 Glyceryl Dioleate. […] Distilled water, […], was added to the mixture and gently mixed. This yielded a concentration of 1 mg/ml. […] This solution can easily be incorporated into a cream, gel or lotion dosage form."}}}
{"molecule": "PEG-12 Glyceryl Dioleate [PEG-12 GDO]", "values": [{"measurement": "Spontaneous Liposomes at 20° C.", "setting": "[1]; 2 weight percent lipid in aqueous solution, 20° C.", "result": "YES"}, {"measurement": "Spontaneous Liposomes at 37° C.", "setting": "[1]; 2 weight percent lipid in aqueous solution, 37° C.", "result": "YES"}, {"measurement": "Spontaneous Liposomes at 60° C.", "setting": "[1]; 2 weight percent lipid in aqueous solution, 60° C.", "result": "YES"}, {"measurement": "spontaneous liposome formation", "setting": "[1]; all temperatures tested", "result": "spontaneously forms liposomes at all temperatures tested"}]}
{"molecule": "CC1=C(/C=C/C(C)=C/C=C/C(C)=C/C(=O)O)C(C)(C)CCC1", "note": "[Tretinoin, all-trans retinoic acid, reference compound]", "values": [{"measurement": "dissolution in PEG-12 Glyceryl Dioleate", "setting": "[2]; 6 mg in 500 μl of PEG-12 Glyceryl Dioleate", "result": "Dissolution was complete"}]}
{"molecule": "CC(C)CCC[C@@H](C)[C@H]1CC[C@H]2[C@@H]3CC=C4C[C@@H](O)CC[C@]4(C)[C@H]3CC[C@]12C", "note": "[cholesterol]", "values": [{"measurement": "amount dissolved in PEG-12 GDO", "setting": "[2]; in PEG-12 GDO", "result": "up to 10 percent by weight"}]}
